How the values were obtained:
[1] = biological target: Probable G-protein coupled receptor 27 (Homo sapiens, UniProt Q9NS67); experiment: Agonist activity at CLuc-tagged human GPR27 expressed in HEK293 cells incubated for 10 mins by beta-arrestin 2 recruitment based firefly luciferase complementation assay
GPR27-V2 [2] = biological target: T1, GPR27-V2 (Homo sapiens, UniProt P30518+Q9NS67); experiment: Agonist activity at CLuc-tagged human GPR27-V2 expressed in HEK293 cells incubated for 10 mins by beta-arrestin 2 recruitment based firefly luciferase complementation assay
T1 sequence (P30518 whole entry): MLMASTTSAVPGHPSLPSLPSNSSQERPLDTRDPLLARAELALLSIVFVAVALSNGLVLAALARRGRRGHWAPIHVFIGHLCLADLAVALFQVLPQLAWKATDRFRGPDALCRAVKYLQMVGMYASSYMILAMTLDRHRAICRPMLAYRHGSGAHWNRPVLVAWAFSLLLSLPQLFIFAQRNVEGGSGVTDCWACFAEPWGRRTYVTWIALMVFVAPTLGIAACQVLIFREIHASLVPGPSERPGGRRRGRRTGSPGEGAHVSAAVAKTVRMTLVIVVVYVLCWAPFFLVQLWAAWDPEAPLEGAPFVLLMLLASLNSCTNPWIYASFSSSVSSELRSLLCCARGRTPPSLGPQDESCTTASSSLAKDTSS
T1 sequence (Q9NS67 whole entry): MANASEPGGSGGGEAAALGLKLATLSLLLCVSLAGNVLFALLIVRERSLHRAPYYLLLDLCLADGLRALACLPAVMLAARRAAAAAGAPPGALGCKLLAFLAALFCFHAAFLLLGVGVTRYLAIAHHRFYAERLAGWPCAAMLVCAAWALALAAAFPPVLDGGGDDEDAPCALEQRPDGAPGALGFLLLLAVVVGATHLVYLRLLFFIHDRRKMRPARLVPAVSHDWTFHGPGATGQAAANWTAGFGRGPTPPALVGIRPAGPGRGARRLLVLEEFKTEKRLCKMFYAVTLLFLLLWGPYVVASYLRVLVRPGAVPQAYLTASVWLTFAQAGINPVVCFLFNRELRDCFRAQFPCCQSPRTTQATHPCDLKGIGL

GPR27-V2 [3] = biological target: T1, GPR27-V2; experiment: Agonist activity at CLuc-tagged human GPR27-V2 expressed in HEK293 cells incubated overnight by beta-arrestin 2 recruitment based firefly luciferase complementation assay

Chain of Probable G-protein coupled receptor 27 (Q9NS67 whole entry): as above

| Compound | EC50 [1] [nM] | EC50 (GPR27-V2 [2]) [nM] | EC50 (GPR27-V2 [3]) [nM] |
| --- | --- | --- | --- |
| O=C(Nc1ccc(S(=O)(=O)Nc2ccccc2)cc1)c1cc2ccccc2cc1Cl | 955 |  |  |
| O=C(Nc1ccc(S(=O)(=O)Nc2ccccc2)cc1)c1cc(Cl)c(Cl)cc1Cl | 589 |  |  |
| O=C(Nc1ccc(S(=O)(=O)Nc2ccccc2)cc1)c1ccc(C(F)(F)F)cc1Cl | 6760 | 3890 |  |
| O=C(Nc1ccc(S(=O)(=O)Nc2ccccc2)cc1)c1c(Cl)cc(Cl)cc1Cl | > 31600 |  |  |
| O=C(Nc1ccc(S(=O)(=O)O)cc1)c1ccc(Cl)cc1Cl |  | > 100000 |  |
| N#Cc1ccc(C(=O)Nc2ccc(S(=O)(=O)Nc3ccccc3)cc2)c(Cl)c1 | 977 | 5890 |  |
| O=C(Nc1ccc(S(=O)(=O)Nc2ccccc2)cc1)c1cc(F)c(Cl)cc1Cl | 380 |  |  |
| NS(=O)(=O)c1ccc(NC(=O)c2ccc(Br)cc2Br)cc1 |  | > 100000 |  |
| O=C(/C=C/c1ccc(Cl)cc1Cl)Nc1ccc(S(=O)(=O)Nc2ccccc2)cc1 |  | > 100000 |  |
| Cc1cc(Cl)c(C(=O)Nc2ccc(S(=O)(=O)Nc3ccccc3)cc2)cc1Cl | 363 |  |  |
| Cc1cc(Cl)c(C(=O)Nc2ccc(S(=O)(=O)Nc3ccccc3)cc2)cc1F | > 31600 |  |  |
| COc1ccc(C(=O)Nc2ccc(S(=O)(=O)Nc3ccccc3)cc2)c(Cl)c1 | > 31600 | 8130 |  |
| O=C(Nc1ccc(S(=O)(=O)Nc2nccs2)cc1)c1ccc(Cl)cc1Cl |  |  | 661 |
| CNS(=O)(=O)c1ccc(NC(=O)c2ccc(Br)cc2Br)cc1 |  | > 100000 |  |
| Cc1cc(C(=O)Nc2ccc(S(=O)(=O)Nc3ccccc3)cc2)c(F)cc1Br | 2140 |  |  |
| CC(=O)NS(=O)(=O)c1ccc(NC(=O)c2ccc(Cl)cc2Cl)cc1 |  | > 100000 |  |
| Cc1cc(C(=O)Nc2ccc(S(=O)(=O)Nc3ccccc3)cc2)c(Cl)cc1Cl | 372 |  |  |
| O=C(Nc1ccc(S(=O)(=O)Nc2ccccc2)cc1)c1ccc(Cl)cc1Cl | 6610 | 7410 | 417 |
| Cc1cc(Br)c(F)cc1C(=O)Nc1ccc(S(=O)(=O)Nc2ccccc2)cc1 | 562 |  |  |

| Compound | EC50 [1] [nM] | EC50 (GPR27-V2 [2]) [nM] | EC50 (GPR27-V2 [3]) [nM] |
| --- | --- | --- | --- |
| Cc1cc(C(=O)Nc2ccc(S(=O)(=O)Nc3ccccc3)cc2)c(C)cc1Cl | 275 |  |  |
| CN(C)S(=O)(=O)c1ccc(NC(=O)c2ccc(Cl)cc2Cl)cc1 |  | > 100000 |  |
| Cc1onc(NS(=O)(=O)c2ccc(NC(=O)c3ccc(Cl)cc3Cl)cc2)c1C |  | > 100000 |  |
| CS(=O)(=O)c1ccc(NC(=O)c2ccc(Cl)cc2Cl)cc1 |  | 38000 |  |
| Cc1cc(Cl)c(Cl)cc1C(=O)Nc1ccc(S(=O)(=O)Nc2ccccc2)cc1 | 263 |  |  |
| Cc1nnc(NS(=O)(=O)c2ccc(NC(=O)c3ccc(Cl)cc3Cl)cc2)s1 |  | > 100000 |  |
| Cc1cc(NS(=O)(=O)c2ccc(NC(=O)c3ccc(Cl)cc3Cl)cc2)no1 |  | > 100000 |  |
| O=C(Nc1ccc(S(=O)(=O)Nc2cnc3ccccc3n2)cc1)c1ccc(Cl)cc1Cl |  | > 100000 |  |
| O=C(Nc1ccc(S(=O)(=O)Nc2ccccc2)cc1)c1ccc(Cl)cc1OC(F)(F)F | > 31600 | 195 |  |
| O=C(Nc1ccc(S(=O)(=O)Nc2ccccc2)cc1)c1ccc(C(F)(F)F)cc1Br | 245 | 6920 |  |
| O=C(Nc1ccc(S(=O)(=O)Nc2ccccc2)cc1)c1ccc(F)cc1F | 447 | 3890 |  |
| O=C(Nc1ccc(S(=O)(=O)Nc2ccccc2)cc1)c1ccc(Cl)c(Cl)c1Cl | 631 |  |  |
| COc1cc(Cl)ccc1C(=O)Nc1ccc(S(=O)(=O)Nc2ccccc2)cc1 | 204 | 977 |  |
| O=C(Nc1ccc(S(=O)(=O)Nc2ccccc2)cc1)c1ccc(Br)cc1Br | 1230 | 3240 |  |
| O=C(Nc1ccc(S(=O)(=O)Nc2ccccc2)cc1)c1ccc(C(F)(F)F)cc1C(F)(F)F | > 31600 | 550 |  |
| Cc1cc(C(=O)Nc2ccc(S(=O)(=O)Nc3ccccc3)cc2)c(C)cc1Br | 126 |  |  |
| COc1ccc(C(=O)Nc2ccc(S(=O)(=O)Nc3ccccc3)cc2)c(C)c1 | > 31600 | > 100000 |  |
| N#Cc1cc(Cl)c(C(=O)Nc2ccc(S(=O)(=O)Nc3ccccc3)cc2)c(Cl)c1 | > 31600 |  |  |
